Assay results from paper PMC8249783, “A novel multikinase inhibitor SKLB‐YTH‐60 ameliorates inflammation and fibrosis in bleomycin‐induced lung fibrosis mouse models” (Cell Proliferation, 2021).
Converted amounts (≈) assume the structure as drawn. Like-named read-outs stand apart in the source and are kept apart here.

Assays:
[1] = tested on: infiltrating inflammatory cells in BALF; assay: Bronchoalveolar lavage fluid cell count in BLM mice; format: in vivo, C57BL/6 mice; details: 30 mg·kg^−1, day 14
Procedure: (§1) Male C57BL/6 mice (8‐10 weeks old) were purchased from HFK Bioscience Co. Ltd. All animal experiments were permitted by the Institutional Animal Care and Treatment Committee of Sichuan University in China (New Permit Number: 20190524003). Lung fibrosis was induced using BLM treatment (2 mg·kg^−1). All C57BL/6 mice were divided into five groups (n = 10): a BLM + Nintedanib group (Nintedanib, 30 mg·kg^−1), a BLM + YTH‐60 group (YTH‐60, 15 mg·kg^−1 and 30 mg·kg^−1), a control group (Sham), and a bleomycin group (Vehicle). At the beginning, the mice were anaesthetized using 10% chloral hydrate, dissolved BLM with saline and administered intratracheally. To evaluate the preventive effect, the next day after BLM challenge, YTH‐60 and Nintedanib were administered intraperitoneally daily for 13 days (fibroproliferation) to the mice. All mice were sacrificed 24 hours after the last drug injection, the lungs and other organs were taken for the subsequent analysis. To test the therapeutic effect, after the 7th day of BLM treatment, mice were injected intraperitoneally with YTH‐60, Nintedanib and vehicle daily for 7 consecutive days (fibroproliferation).
After the animals were anaesthetized, rinsing the lungs with 1 mL of normal saline three times and collected bronchoalveolar lavage fluid. The total living cell count was performed by an ADVIA 2120i.

[2] = tested on: TNF‐α, IFN‐γ, IL‐2, IL‐4, IL‐10 and IL‐17A; assay: Serum cytokines in BLM mice (Th1/Th2/Th17 Cytokine Kit); format: in vivo, C57BL/6 mice; details: day 14
Procedure: as §1
IL‐2, IL‐4, IL‐10, IL‐17A, TNF‐α and IFN‐γ levels in mouse serum were determined using a mouse Th1/Th2/Th17 Cytokine Kit (BD Biosciences) according to the manufacturer's instructions. […]

[3] = Determination of thermodynamic solubility; format: physicochemical; details: for solubility at 5 min: thermodynamic from solid, double testing
Procedure: Weigh about 1 mg of the test compound into 1.5 mL centrifuge tube and add 0.5 mL various solvents, sonicating for 5 minutes (if the compound is completely dissolved, then added again test compound until a little solid remains). Take the supernatant after centrifugation, diluting to a suitable concentration using and measuring absorbance values by UV spectrophotometer. Weigh 10 mg compound accurately of the test compound into 1.5 mL centrifuge tube and add 1.2 mL methanol solution to prepare 8.3 mg·mL^−1 mother solution. Take the above described mother liquor to prepare the solution in concentrations of 8.3, 4.2, 2.1, 1.0, 0.52, 0.26 mg·mL^−1 then measure absorbance value. With concentration c (mg·mL^−1) as the abscissa, absorbance A as the ordinate, mapping and fitting line to get the standard curve (The correlation coefficient should be greater than 0.998). Calculate solubility according to the standard curve of the linear equation.

FGFR2 (h) = FGFR2 (h) (Homo sapiens, UniProt P21802); assay: Kinase profile assay and IC50 test (Eurofins); format: biochemical; details: double testing
Procedure: (§2) The in vitro kinase enzymatic inhibition assays were carried out by the Kinase Profiling Services provided by Eurofins (UK). The detailed protocol descriptions can be provided by the website (https://www.eurofinsdiscoveryservices.com).

PDGFRβ (h) = PDGFRβ (h) (Homo sapiens, UniProt P09619); assay: Kinase profile assay and IC50 test (Eurofins); format: biochemical
Procedure: as §2

FGFR4 (h) = FGFR4 (h) (Homo sapiens, UniProt P22455); assay: Kinase profile assay and IC50 test (Eurofins); format: biochemical; details: double testing
Procedure: as §2

FGFR1 (h) = FGFR1 (h) (Homo sapiens, UniProt P11362); assay: Kinase profile assay and IC50 test (Eurofins); format: biochemical; details: double testing
Procedure: as §2

PDGFRα (h) = PDGFRα (h) (Homo sapiens, UniProt P16234); assay: Kinase profile assay and IC50 test (Eurofins); format: biochemical
Procedure: as §2

KDR (h)/VEGFR2 = KDR (h)/VEGFR2 (Homo sapiens, UniProt P35968); assay: Kinase profile assay and IC50 test (Eurofins); format: biochemical; details: double testing
Procedure: as §2

Flt4 (h)/VEGFR3 = Flt4 (h)/VEGFR3 (Homo sapiens, UniProt P35916); assay: Kinase profile assay and IC50 test (Eurofins); format: biochemical; details: double testing
Procedure: as §2

Flt1 (h)/VEGFR1 = Flt1 (h)/VEGFR1 (Homo sapiens, UniProt P17948); assay: Kinase profile assay and IC50 test (Eurofins); format: biochemical; details: double testing
Procedure: as §2

Src (1‐530) (h) = molecular target: T1, Src (1‐530) (h) (Homo sapiens, UniProt P12931); assay: Kinase profile assay and IC50 test (Eurofins); format: biochemical; details: double testing
T1 construct: Src (1‐530) (h)
Procedure: as §2

Flt3 (h) = Flt3 (h) (Homo sapiens, UniProt P36888); assay: Kinase profile assay and IC50 test (Eurofins); format: biochemical; details: double testing
Procedure: as §2

Abl (h) = Abl (h) (Homo sapiens, UniProt P00519); assay: Kinase profile assay and IC50 test (Eurofins); format: biochemical; details: double testing
Procedure: as §2

FGFR3 (h) = FGFR3 (h) (Homo sapiens, UniProt P22607); assay: Kinase profile assay and IC50 test (Eurofins); format: biochemical; details: double testing
Procedure: as §2

[4] = tested on: BLM‐induced pulmonary fibrosis; assay: BLM‐induced pulmonary fibrosis mouse model, preventive treatment; format: in vivo, C57BL/6 mice; details: mice, day 14
Procedure: as §1, with “To test the therapeutic effect, after the 7th day of BLM treatment, mice were injected intraperitoneally with YTH‐60, Nintedanib and vehicle daily for 7 consecutive days (fibroproliferation).” left out
The left lung was detached and immediately fixed in 4% paraformaldehyde for 72 hours and then embed with paraffin wax. […] Ashcroft scoring was used to examine the severity of pulmonary fibrosis. ^20 The image analysis‐based system to quantify collagen deposition was described previously. ^21 […]

Sequence of PDGFRα (h) (P16234 24-1089): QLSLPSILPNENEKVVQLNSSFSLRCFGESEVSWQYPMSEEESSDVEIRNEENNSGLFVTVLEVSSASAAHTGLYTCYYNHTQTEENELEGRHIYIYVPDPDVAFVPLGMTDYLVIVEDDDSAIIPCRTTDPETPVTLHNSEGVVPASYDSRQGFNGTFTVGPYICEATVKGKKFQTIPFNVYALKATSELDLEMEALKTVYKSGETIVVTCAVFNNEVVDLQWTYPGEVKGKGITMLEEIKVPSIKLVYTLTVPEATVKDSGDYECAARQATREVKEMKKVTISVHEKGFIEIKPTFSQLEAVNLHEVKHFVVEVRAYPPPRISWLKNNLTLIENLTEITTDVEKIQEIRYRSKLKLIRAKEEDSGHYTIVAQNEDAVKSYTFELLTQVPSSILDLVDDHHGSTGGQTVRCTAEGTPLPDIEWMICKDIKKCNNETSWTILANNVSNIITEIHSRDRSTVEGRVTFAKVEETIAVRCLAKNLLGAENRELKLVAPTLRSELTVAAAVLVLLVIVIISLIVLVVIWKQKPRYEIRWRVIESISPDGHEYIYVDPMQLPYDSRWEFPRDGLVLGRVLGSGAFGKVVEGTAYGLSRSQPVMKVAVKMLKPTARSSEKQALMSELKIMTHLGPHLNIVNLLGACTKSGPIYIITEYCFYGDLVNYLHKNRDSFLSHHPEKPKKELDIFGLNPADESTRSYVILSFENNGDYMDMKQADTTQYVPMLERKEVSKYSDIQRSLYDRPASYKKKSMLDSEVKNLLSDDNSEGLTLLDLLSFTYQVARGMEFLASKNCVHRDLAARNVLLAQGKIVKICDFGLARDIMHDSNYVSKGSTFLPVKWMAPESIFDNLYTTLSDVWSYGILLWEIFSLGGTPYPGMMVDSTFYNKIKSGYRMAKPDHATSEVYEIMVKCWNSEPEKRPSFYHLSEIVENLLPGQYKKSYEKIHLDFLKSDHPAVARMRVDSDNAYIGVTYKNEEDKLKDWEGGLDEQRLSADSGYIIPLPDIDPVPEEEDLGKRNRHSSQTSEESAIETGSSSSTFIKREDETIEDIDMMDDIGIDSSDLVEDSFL
Sequence of PDGFRβ (h) (P09619 33-1106): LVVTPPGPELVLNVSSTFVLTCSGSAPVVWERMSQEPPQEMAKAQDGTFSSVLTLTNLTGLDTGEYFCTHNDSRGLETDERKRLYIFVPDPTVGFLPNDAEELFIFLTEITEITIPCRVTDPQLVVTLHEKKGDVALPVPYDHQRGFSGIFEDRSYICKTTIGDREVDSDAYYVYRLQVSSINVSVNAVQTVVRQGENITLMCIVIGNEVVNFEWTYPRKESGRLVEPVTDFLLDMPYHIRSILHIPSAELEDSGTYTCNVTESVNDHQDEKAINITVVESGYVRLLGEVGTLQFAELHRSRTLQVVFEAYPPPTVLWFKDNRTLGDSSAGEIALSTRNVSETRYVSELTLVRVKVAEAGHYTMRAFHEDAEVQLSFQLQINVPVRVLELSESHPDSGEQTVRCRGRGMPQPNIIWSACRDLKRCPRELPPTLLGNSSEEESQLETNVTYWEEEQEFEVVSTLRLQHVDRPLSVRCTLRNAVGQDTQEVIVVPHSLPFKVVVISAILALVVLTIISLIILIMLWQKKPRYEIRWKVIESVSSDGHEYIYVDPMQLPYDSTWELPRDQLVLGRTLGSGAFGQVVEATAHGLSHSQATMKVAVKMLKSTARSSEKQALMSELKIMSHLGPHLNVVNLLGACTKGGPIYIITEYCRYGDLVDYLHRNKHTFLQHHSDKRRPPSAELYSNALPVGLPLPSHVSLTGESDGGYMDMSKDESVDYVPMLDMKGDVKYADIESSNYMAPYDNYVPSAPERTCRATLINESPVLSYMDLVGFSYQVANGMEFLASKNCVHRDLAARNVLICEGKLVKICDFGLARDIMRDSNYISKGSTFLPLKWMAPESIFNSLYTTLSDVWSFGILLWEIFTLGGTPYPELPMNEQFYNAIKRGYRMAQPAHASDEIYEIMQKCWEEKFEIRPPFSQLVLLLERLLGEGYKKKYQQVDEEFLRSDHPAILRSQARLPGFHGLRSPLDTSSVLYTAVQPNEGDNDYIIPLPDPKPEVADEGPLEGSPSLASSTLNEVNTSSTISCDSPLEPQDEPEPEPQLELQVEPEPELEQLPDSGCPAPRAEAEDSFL
Sequence of Abl (h) (P00519 whole entry): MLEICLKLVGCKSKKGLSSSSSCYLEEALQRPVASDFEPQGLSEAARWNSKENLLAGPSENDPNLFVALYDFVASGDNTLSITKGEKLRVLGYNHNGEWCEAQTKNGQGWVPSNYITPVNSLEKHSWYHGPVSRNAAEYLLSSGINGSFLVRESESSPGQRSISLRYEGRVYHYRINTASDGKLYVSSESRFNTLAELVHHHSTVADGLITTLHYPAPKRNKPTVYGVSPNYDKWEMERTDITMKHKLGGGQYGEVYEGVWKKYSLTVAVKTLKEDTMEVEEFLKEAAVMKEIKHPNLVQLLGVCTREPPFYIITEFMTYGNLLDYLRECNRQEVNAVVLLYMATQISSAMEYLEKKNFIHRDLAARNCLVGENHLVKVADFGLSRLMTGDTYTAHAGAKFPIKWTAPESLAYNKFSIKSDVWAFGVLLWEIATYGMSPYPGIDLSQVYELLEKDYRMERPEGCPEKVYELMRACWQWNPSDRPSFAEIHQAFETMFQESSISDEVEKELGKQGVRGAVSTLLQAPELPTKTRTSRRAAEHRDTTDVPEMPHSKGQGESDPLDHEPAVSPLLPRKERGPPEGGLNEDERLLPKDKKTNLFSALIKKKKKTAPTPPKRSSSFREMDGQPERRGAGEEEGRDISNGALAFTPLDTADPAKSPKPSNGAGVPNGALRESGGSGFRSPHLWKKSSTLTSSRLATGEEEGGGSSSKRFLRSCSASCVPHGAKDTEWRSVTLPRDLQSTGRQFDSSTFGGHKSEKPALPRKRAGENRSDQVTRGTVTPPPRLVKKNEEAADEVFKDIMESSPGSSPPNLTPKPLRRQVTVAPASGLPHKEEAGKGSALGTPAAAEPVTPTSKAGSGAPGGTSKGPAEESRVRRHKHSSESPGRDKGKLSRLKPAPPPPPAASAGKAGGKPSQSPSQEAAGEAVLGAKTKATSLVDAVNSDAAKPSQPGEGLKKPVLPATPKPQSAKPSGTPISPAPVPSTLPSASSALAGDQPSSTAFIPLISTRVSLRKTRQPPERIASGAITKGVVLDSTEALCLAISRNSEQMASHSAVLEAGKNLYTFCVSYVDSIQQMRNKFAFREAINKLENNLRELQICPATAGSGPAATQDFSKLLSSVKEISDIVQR
Sequence of Flt4 (h)/VEGFR3 (P35916 25-1363): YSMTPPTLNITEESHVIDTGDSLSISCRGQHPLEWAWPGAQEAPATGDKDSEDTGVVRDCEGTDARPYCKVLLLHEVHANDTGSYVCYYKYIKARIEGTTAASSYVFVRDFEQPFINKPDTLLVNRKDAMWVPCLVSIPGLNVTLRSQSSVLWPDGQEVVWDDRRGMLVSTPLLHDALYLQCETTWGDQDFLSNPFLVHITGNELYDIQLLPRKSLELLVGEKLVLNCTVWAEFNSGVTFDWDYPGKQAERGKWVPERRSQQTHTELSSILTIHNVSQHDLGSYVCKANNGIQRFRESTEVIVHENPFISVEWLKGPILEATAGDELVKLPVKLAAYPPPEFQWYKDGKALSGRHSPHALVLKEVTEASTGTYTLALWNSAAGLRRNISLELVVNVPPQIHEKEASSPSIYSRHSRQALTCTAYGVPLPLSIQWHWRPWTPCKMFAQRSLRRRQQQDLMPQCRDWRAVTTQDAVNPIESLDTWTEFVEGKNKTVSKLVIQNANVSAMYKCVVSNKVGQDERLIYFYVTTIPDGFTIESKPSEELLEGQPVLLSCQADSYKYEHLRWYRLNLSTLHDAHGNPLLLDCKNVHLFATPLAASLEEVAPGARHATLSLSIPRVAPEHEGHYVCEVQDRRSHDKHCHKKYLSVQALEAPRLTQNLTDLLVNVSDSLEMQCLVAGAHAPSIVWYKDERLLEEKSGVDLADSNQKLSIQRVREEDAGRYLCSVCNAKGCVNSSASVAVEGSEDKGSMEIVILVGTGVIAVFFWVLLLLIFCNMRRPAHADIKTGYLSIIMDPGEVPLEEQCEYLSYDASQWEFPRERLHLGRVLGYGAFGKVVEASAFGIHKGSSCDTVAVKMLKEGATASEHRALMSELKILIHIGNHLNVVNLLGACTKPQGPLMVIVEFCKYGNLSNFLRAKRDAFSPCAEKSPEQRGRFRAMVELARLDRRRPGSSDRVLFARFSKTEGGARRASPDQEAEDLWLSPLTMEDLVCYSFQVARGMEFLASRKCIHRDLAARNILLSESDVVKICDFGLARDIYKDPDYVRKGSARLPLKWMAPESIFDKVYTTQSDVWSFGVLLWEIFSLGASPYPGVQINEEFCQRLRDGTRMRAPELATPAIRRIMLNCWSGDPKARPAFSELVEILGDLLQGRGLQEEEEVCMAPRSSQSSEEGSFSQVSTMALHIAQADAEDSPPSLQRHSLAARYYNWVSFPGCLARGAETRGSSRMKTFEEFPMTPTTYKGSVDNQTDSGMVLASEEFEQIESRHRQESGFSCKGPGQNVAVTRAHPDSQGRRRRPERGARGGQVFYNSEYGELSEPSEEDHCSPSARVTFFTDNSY

SMILES: COc1cc(OC)c(Cl)c(-c2ccc3c(/C=C/c4ccc(N(C)C(=O)CN5CCN(C)CC5)cc4)n[nH]c3c2)c1Cl [YTH‐60, (E)‐N‐(4‐(2‐(6‐(2,6‐dichloro‐3,5‐dimethoxyphenyl)‐1H‐indazol‐3‐yl)vinyl)phenyl)‐N‐methyl‐2‐(4‐methylpiperazin‐1‐yl)acetamide]
- infiltrating inflammatory cells in BALF (in words) [1]: significantly reduce the number of infiltrating inflammatory cells
- inflammatory cytokines in serum (in words) [2]: reduced the expression level of these inflammatory cytokines
- solubility compared with Nintedanib (in words) [3]: better solubility than Nintedanib
- solubility at 5 min ([3]; organic solvent or mixture, Acetone, read-out: Solubility, Acetone): 83.1 ± 0.89 mg/mL (≈ 140 mM)
- solubility at 5 min ([3]; organic solvent or mixture, Acetonitrile, read-out: Solubility, Acetonitrile): 18.3 ± 1.2 mg/mL (≈ 30.8 mM)
- solubility at 5 min ([3]; organic solvent or mixture, Ethyl acetate, read-out: Solubility, Ethyl acetate): 101 ± 4.02 mg/mL (≈ 170 mM)
- solubility at 5 min ([3]; organic solvent or mixture, Ethyl alcohol, read-out: Solubility, Ethyl alcohol): 77 ± 1.53 mg/mL (≈ 130 mM)
- solubility at 5 min ([3]; saline or isotonic, Normal saline, read-out: Solubility, Normal saline): 12.7 ± 0.15 mg/mL (≈ 21.4 mM)
- solubility at 5 min ([3]; Water, read-out: Solubility, Water): 1.71 ± 0.14 mg/mL (≈ 2.88 mM)
- IC50 (FGFR2 (h)): 7 nM
- kinase inhibition (in words) (PDGFRβ (h)): relatively weak kinase inhibition
- IC50 (PDGFRβ (h); double testing): > 3000 nM
- IC50 (FGFR4 (h)): 424 nM
- IC50 (FGFR1 (h)): 4 nM
- kinase inhibition (in words) (PDGFRα (h)): relatively weak kinase inhibition
- IC50 (PDGFRα (h); double testing): 921 nM
- IC50 (KDR (h)/VEGFR2): 61 nM
- IC50 (Flt4 (h)/VEGFR3): 64 nM
- IC50 (Flt1 (h)/VEGFR1): 123 nM
- IC50 (Src (1‐530) (h)): 633 nM
- IC50 (Flt3 (h)): 297 nM
- IC50 (Abl (h)): 27 nM
- IC50 (FGFR3 (h)): 9 nM
- preventive effect on BLM‐induced pulmonary fibrosis (in words) ([4]; 15 mg·kg^−1 i.p.): less effective
- preventive effect on BLM‐induced pulmonary fibrosis (in words) ([4]; 30 mg·kg^−1 i.p.): good preventive effect
